Data on nine compounds can be found in patent publication US4812469A, “Acetamides derived from 2,3-dihydro-3-phenyl-2-benzofuranone” (Adir Et Cie, priority 1987, dated 1989).

Structures are written as SMILES. Counter-ions that a name gives are not always drawn. Like-named read-outs stand apart in the source and are kept apart here.

The subject of experiment [1] is tissue energy-rich compounds (ATP, ADP, AMP) of the brain. Briefly: Acute normobaric hypoxia in rats, brain tissue energy-rich compounds (ATP level and energy content). In kind it is in vivo, rats (male Fischer 344). The note with it: for % inhibition of the effects of hypoxia: ATP / % inhibition of the effects of hypoxia: EC (energy content): 3% oxygen for 2 minutes. On the procedure:
(§1) The compounds of the present invention were tested in respect of their capacity to prolong the survival of cerebral tissue during acute hypoxia in mice, or to maintain the level of tissue energy-rich compounds in rats subjected to a fall in the oxygen supply [Pharmacology of Cerebral Ischemia, ([…]) p. 334-339 Elsevier Science Publishers B.V., J. Krieglstein ed.]. […] Forsch. Drug Res. (1986), 36 II No. 9, p. 1314-1320].
Whereas the control rats breathe a gaseous mixture containing 21% of oxygen and 79% of nitrogen, the rats subjected to hypoxia breath a mixture of 3% oxygen and 97% nitrogen for 2 minutes.
At the end of the hypoxic period, the animals are rapidly sacrificed by total immersion in liquid nitrogen. The frozen brain is removed and the energy-rich compounds (ATP, ADP, AMP) are extracted and assayed by the luciferin luminescence method.
The tissue energy content (EC) is calculated according to ATKINSON's formula: [formula]

The subject of experiment [2] is survival of cerebral tissue during acute hypoxia. Briefly: Acute hypobaric hypoxia in mice, survival time of the brain (final respiratory gasp). The experiment is classed as in vivo, mice (male CD1). On the procedure:
as §1
The survival of the brain is assessed by measuring the time at which the final respiratory gasp is observed.
The survival time of a treated batch is compared with that of a control batch receiving only the solvent.

The mark [3] stands for this setting: Mus musculus, ip, 30 mg/kg I.P., 30 minutes before hypoxia (160 mbar), mice, vs control batch, read-out: Percentage increase in the survival time.
Setting [4] is: Mus musculus, ip, 100 mg/kg I.P., 30 minutes before hypoxia (160 mbar), mice, vs control batch, read-out: Percentage increase in the survival time.
Setting [5] is: Mus musculus, ip, read-out: Percentage increase in the survival time.
The mark [6] stands for this setting: 100 mg/kg I.P., listed as pyritinol.

With `NC(=O)Cc1ccc2c(c1)C(c1ccccc1)C(=O)O2` (centres unmarked) [Example 1, 2-(2,3-Dihydro-2-oxo-3-phenyl-5-benzofuranyl)acetamide], in experiment [1] (30 mg/kg I.P.), the “% inhibition of the effects of hypoxia: ATP” value (“% inhibition … ATP” below) is 64.6% and the “% inhibition of the effects of hypoxia: EC (energy content)” value (“% inhibition … (energy content)” below) is 66%. Moreover, the “effect on the ATP level and the energy content (in words)” value in experiment [1] (30 mg/kg, compared with meclofenoxate 300 mg/kg) is “Such an effect is observed with a dose of 30 mg/kg”. In experiment [2] (Mus musculus, ip, 3 mg/kg I.P., 30 minutes before hypoxia (160 mbar), mice, vs control batch, read-out: Percentage increase in the survival time), the ILS at 3 mg/kg is 24%. Besides, the ILS at 30 mg/kg in experiment [2] (setting [3]) amounted to 46%. Moreover, the ILS at 100 mg/kg in experiment [2] (setting [4]) was 170%.

With `O=C1Oc2ccc(CC(=O)N3CCN(c4ccc(C(F)(F)F)cn4)CC3)cc2C1c1ccccc1` (centres unmarked) [Example 3, 2-(2,3-Dihydro-2-oxo-3-phenyl-5-benzofuranyl)-1-[4-(5-trifluoromethyl-2-pyridyl)piperazinyl]-1-oxoethane], the ILS at 30 mg/kg in experiment [2] (setting [3]) is 36%. Further, the ILS at 100 mg/kg in experiment [2] (setting [4]) turned out to be 57%.

Consider `O=C1Oc2ccc(CC(=O)N3CCN(Cc4ccc5c(c4)OCO5)CC3)cc2C1c1ccccc1` (centres unmarked) [Example 4], for which, in experiment [2] (setting [5]), the ILS at 3 mg/kg worked out at 43%, the ILS at 10 mg/kg stood at 49%, the ILS at 30 mg/kg was 54% and the ILS at 100 mg/kg is 133%.

Turning to `CN1CCN(C(=O)Cc2ccc3c(c2)C(c2ccccc2)C(=O)O3)CC1` (centres unmarked) [Example 5, 2-(2,3-Dihydro-2-oxo-3-phenyl-5-benzofuranyl)-1-(4-methylpiperazinyl)-1-oxoethane tartrate], in experiment [2] (setting [5]), the ILS at 100 mg/kg is 111%.

Take `NC(=O)Cc1cccc2c1OC(=O)C2c1ccccc1` (centres unmarked) [Example 8, 2-(2,3-Dihydro-2-oxo-3-phenyl-7-benzofuranyl)acetamide]: the ILS at 100 mg/kg in experiment [2] (setting [4]) amounted to 13%.

Regarding `NC(=O)Cc1cc(Cl)cc2c1OC(=O)C2c1ccccc1` (centres unmarked) [Example 9, 2-(5-Chloro-2,3-dihydro-2-oxo-3-phenyl-7-benzofuranyl)acetamide], the ILS at 100 mg/kg in experiment [2] (setting [4]) was 23%.

For the compound `CN(C)CCOC(=O)COc1ccc(Cl)cc1` [Meclofenoxate, meclofenoxate, reference compound], in experiment [1] (300 mg/kg I.P.), the “% inhibition … ATP” value stood at 59.7% and the “% inhibition … (energy content)” value came out at 69.6%. Moreover, in experiment [2] (setting [5]), the ILS at 30 mg/kg stood at 4% and the ILS at 100 mg/kg came out at 22%.

As for `NC(=O)CN1CCCC1=O` [Piracetam, piracetam, reference compound], the ILS at 100 mg/kg in experiment [2] (setting [4]) was 11%.

For `Cc1ncc(CSSCc2cnc(C)c(O)c2CO)c(CO)c1O` [Pyritinol, pyritinol], the “% inhibition … ATP” value in experiment [1] (30 mg/kg I.P.) stood at 11.1%; in experiment [1] (100 mg/kg I.P.) it was 23.3%; in experiment [1] (setting [6]) it was 23%. The results for the “% inhibition … (energy content)” value in experiment [1] (30 mg/kg I.P.), in experiment [1] (100 mg/kg I.P.) and in experiment [1] (setting [6]) were 16.6%, 35.2% and 35%, respectively. Moreover, the “significance of the protection (brain survival time)” value in experiment [2] (100 mg/kg, mice, p<0.05) is given as “significant”. The ILS at 30 mg/kg in experiment [2] (setting [3]) came out at 13%. In addition, the ILS at 100 mg/kg in experiment [2] (setting [4]) amounted to 27%.
